In patent US10188754B2, “Compositions and methods for chemical exchange saturation transfer (CEST) based magnetic resonance imaging (MRI)” (THE JOHNS HOPKINS UNIVERSITY, priority 2013, dated 2019):
Values joined by “and” are separate entries in the source; they are usually repeats but may differ in a detail not shown here. Identical values can stand only once. Like-named read-outs stand apart in the source and are kept apart here. One block for each molecule: values may come before it.

Key:
[1] = format: physicochemical; details: 10 mM, pH 7.3-7.4, tsat = 3 sec, ω1 = 3.6 μT, 37° C.
[2] = 10 mM, pH 7.3-7.4, 37° C.
[3] = in vivo; cited from earlier work
[4] = pH 7.1-7.4, B1=3.6 μT, Tsat=3 s, 37° C., 11.7 T
[5] = QUESP/QUEST determination of ksw of anthranilic acid analogs; format: physicochemical
[6] = QUESP measurement of proton exchange rate (ksw) of salicylic acid; format: physicochemical; details: 25 mM, pH 7.0, QUESP
[7] = neutral pH; cited from earlier work
[8] = format: physicochemical; details: 25 mM, pH 7.0-7.4, tsat=3 sec, ω1=3.6 μT, 37° C., 11.7 T
Experimental: 25 mM salicylic acid analogs (4-11) were made at pH 7.1-7.4 and tested with the phantom condition as described above. The Z-spectra were obtained by using Tsat=3 sec, ω1=3.6 μT at 37° C. […] CEST contrast was quantified by MTRasym=(S−Δω−S+Δω))/S0 after a voxel-by-voxel B0 correction, with characterized mean Z-spectra and MTRasym spectra for sample ROIs plotted and the typical results were summarized in FIG. 3A.

[9] = format: in vivo, mouse; details: mice, i.v., 9.3 ppm, 7.2 μT
Description: In particular, images consisting of a single axial slice containing both kidneys were collected. Because the B0 inhomogeneity was less than 200 Hz for these animals, a two-point collection scheme was used to limit the scan time, which is also allowed by the use of the 7.2 μT field strength. […] A Z-spectrum was acquired before injection. […] According to the initial results in FIGS. 4F-4G, the in vivo data collection scheme was modified in order to improve the kinetic data for compound 1 in the kidney. […] In vivo images were acquired on a Bruker Biospec 11.7 T horizontal bore MR scanner, with one axial slice of 1.5 mm thickness obtained through the medulla of both kidneys. […] The BALB/c mice (n=2) weighing 20-25 g (Charles River Laboratories, Wilmington, Mass.) were maintained under specific pathogen free conditions in the animal facility of Johns Hopkins University. […] Breath rate was monitored throughout in vivo MRI experiments using a respiratory probe. […] BALB/c mice weighing 20-25 g (Charles River Laboratories, Wilmington, Mass.) were maintained under specific pathogen free conditions in the animal facility of Johns Hopkins University. […] Breath rate was monitored throughout in vivo MRI experiments using a respiratory probe. A 60 μL, volume of a 0.25 M salicylic acid solution in PBS (pH 7) was slowly injected via a catheter into the tail vein. […]

[10] = 48.5 tM iopamidol; cited from earlier work

Signal (ppm) ([1]; Table 5): 6.3 ppm
kex ([2]; Table 5): 550 s⁻¹
SMILES: CS(=O)(=O)Nc1ccc(N)cc1C(=O)O [Compound 38]

Signal (ppm) ([1]; Table 4): 10.8 ppm
kex ([2]; Table 4): 310 s⁻¹
SMILES: O=C(O)c1cc(I)cc(I)c1O [Compound 28]

Signal (ppm) ([1]; Table 4): 9.3 ppm
kex ([2]; Table 4): 480 s⁻¹
SMILES: COc1cccc(C(=O)O)c1O [Compound 32, 3-methoxysalicylic acid]

Signal (ppm) ([1]; Table 3): 9.3 ppm
kex ([2]; Table 3): 30 s⁻¹
SMILES: O=C(O)c1c(O)cccc1O [Compound 22, 2,6-dihydroxybenzoic acid]

Signal (ppm) ([1]; Table 5): 7.3 ppm
kex ([2]; Table 5): 470 s⁻¹
SMILES: CS(=O)(=O)Nc1ccccc1C(=O)O [Compound 39]

SMILES: Nc1ccc(C(=O)O)c(O)c1 [Compound 17]
Signal (ppm) ([1]; Table 2): 9.5 ppm
kex ([2]; Table 2): 384 s⁻¹

SMILES: Nc1ccc(C(=O)O)c(O)c1 [4-amino salicylic acid]
LD50 [3]: 4,250 mg/kg

Signal (ppm) ([1]; Table 4): 10.5 ppm
kex ([2]; Table 4): 510 s⁻¹
SMILES: O=Cc1cccc(C(=O)O)c1O [Compound 34, 3-Formylsalicylic acid]

Signal (ppm) ([1]; Table 6): 9.8 ppm
kex ([2]; Table 6): 460 s⁻¹
SMILES: O=C(O)c1cc(C(=O)O)c(O)cc1O [Compound 43, 4,6-dihydroxyisophthalic acid]

Signal (ppm) ([1]; Table 5): 7.8 ppm
kex ([2]; Table 5): 440 s⁻¹
SMILES: Cc1ccc(S(=O)(=O)Nc2ccccc2C(=O)O)cc1 [Compound 40]

Signal (ppm) ([1]; Table 4): 10.5 ppm
kex ([2]; Table 4): 580 s⁻¹
SMILES: O=C(O)c1cc(Br)cc(Br)c1O [Compound 27, 3,5-Dibromosalicylic acid]

Signal (ppm) ([1]; Table 6): 8.3 ppm
kex ([2]; Table 6): 990 s⁻¹
SMILES: O=C(O)c1cc(O)c(C(=O)O)cc1O [Compound 42]

Signal (ppm) ([1]; Table 4): 9.0 ppm
kex ([2]; Table 4): 410 s⁻¹
SMILES: Nc1cccc(C(=O)O)c1O [Compound 33, 3-aminosalicylic acid]

SMILES: O=C(O)c1ccc(O)cc1O [2,4-Dihydroxy benzoic acid]
LD50 [3]: 800 mg/kg

Signal (ppm) ([1]; Table 6): 9.5 ppm
kex ([2]; Table 6): 130 s⁻¹
SMILES: O=C(O)c1cc2ccccc2c(Cc2c(O)c(C(=O)O)cc3ccccc23)c1O [Compound 44, Pamoic acid]

Signal (ppm) ([1]; Table 5): 4.8 ppm
kex ([2]; Table 5): 670 s⁻¹
SMILES: O=C(O)c1ccccc1Nc1ccccc1 [Compound 37]

Signal (ppm) ([1]; Table 4): 9.3 ppm
kex ([2]; Table 4): 22 s⁻¹
SMILES: CC(C)(C)c1cc(C(=O)O)c(O)c(C(C)(C)C)c1 [Compound 24, 3,5-di-tert-butylsalicylic acid]

SMILES: O=C(O)c1ccccc1Nc1cccc(C(F)(F)F)c1 [Compound 5, flufenamic acid, reference compound]
LD50 [3]: 150 mg/kg

Signal (ppm) ([1]; Table 3): 9.0 ppm
kex ([2]; Table 3): 4900 s⁻¹
SMILES: COc1cccc(O)c1C(=O)O [Compound 21, 6-methoxysalicylic acid]

Signal (ppm) ([1]; Table 4): 9.5 ppm
kex ([2]; Table 4): 750 s⁻¹
SMILES: O=C(O)c1cccc(F)c1O [Compound 25]

Signal (ppm) ([1]; Table 2): 9.5 ppm
kex ([2]; Table 2): 1500 s⁻¹
SMILES: O=C(O)c1ccc([N+](=O)[O-])cc1O [Compound 19, 2-hydroxy-4-nitrobenzoic acid]

Signal (ppm) ([1]; Table 2): 9.3 ppm
kex ([2]; Table 2): 420 s⁻¹
SMILES: O=C(O)c1ccc(C(=O)O)c(O)c1 [Compound 18]

SMILES: O=C(O)c1ccc(O)cc1O [Compound 16]
Signal (ppm) ([1]; Table 2): 9.5 ppm
kex ([2]; Table 2): 460 s⁻¹

Signal (ppm) ([1]; Table 4): 9.5 ppm
kex ([2]; Table 4): 250 s⁻¹
SMILES: Cc1cccc(C(=O)O)c1O [Compound 23, 3-Methylsalicylic acid]

Signal (ppm) ([1]; Table 4): 10.3 ppm
kex ([2]; Table 4): 1070 s⁻¹
SMILES: O=C(O)c1cc(Cl)cc(Cl)c1O [Compound 26]

Signal (ppm) ([1]; Table 5): 9.3 ppm
kex ([2]; Table 5): 190 s⁻¹
SMILES: O=C(O)c1ccccc1NC(=O)C(F)(F)F [Compound 41]

Signal (ppm) ([1]; Table 4): 10.5 ppm
kex ([2]; Table 4): 220 s⁻¹
SMILES: O=C(O)c1ccc2ccccc2c1O [Compound 29, 1-Hydroxy-2-naphthoic acid]

CEST frequency / labile proton chemical shift from water [4]: 9.3 ppm
ksw ([5]; pH 6.5): 2.4 kHz
ksw ([5]; pH 7.8): 0.4 kHz
Signal (ppm) ([1]; Table 1): 9.3 ppm
proton exchange rate with water (ksw) [6]: 1.2 ks^−1
kex ([2]; Table 1): 400 s⁻¹
chemical shift of CEST contrast (exchangeable proton) from water [8]: 9.3 ppm
SMILES: O=C(O)c1ccccc1O [Compound 1, salicylic acid]
exchange rate (previously reported) [7]: 600 s⁻¹
average CEST contrast over the whole kidney [9]: 6.0±0.8% and 6%

Signal (ppm) ([1]; Table 3): 9.5 ppm
kex ([2]; Table 3): 4400 s⁻¹
SMILES: O=C(O)c1c(O)ccc2ccccc12 [Compound 20, 2-hydroxy-l-naphthoic acid]

SMILES: C[C@H](O)C(=O)Nc1c(I)c(C(=O)NC(CO)CO)c(I)c(C(=O)NC(CO)CO)c1I [iopamidol]
optimal time to observe the contrast [10]: 45 min

Signal (ppm) ([1]; Table 4): 9.0 ppm
SMILES: O=C(O)c1cccc(O)c1O [Compound 31, 2,3-dihydroxybenzoic acid]
